Measured values as given in the OligoGym collection.
HELM strings list units from the 5' end as sugar, base in round brackets, then linkage (d deoxyribose, r ribose, m 2'-O-methyl, p phosphodiester). Strings are as the collection lists them, not checked against the first reports. ss, as = sense and antisense strand; [lna] = locked nucleic acid (LNA); [s4r] = 4'-thioribose; [fl2r] = 2'-fluoro
Also: test system not given here.

Settings: siRNA
Work on “RNA1{r(G)p.r(G)p.r(A)p.r(G)p.r(C)p.m(U)p.m(A)p.r(G)p.r(A)p.r(C)p.r(G)p.r(G)p.r(G)p.m(U)p.r(A)p.r(C)p.r(G)p.r(A)p.r(G)p.r(T)p.r(T)}|RNA2{r(C)p.r(U)p.r(C)p.r(G)p.r(U)p.r(A)p.r(C)p.r(C)p.r(C)p.r(G)p.r(U)p.r(C)p.m(U)p.r(A)p.r(G)p.r(C)p.r(U)p.r(C)p.r(C)p.r(T)p.r(T)}$$$RNA1{StrandType:ss}|RNA2{StrandType:as}$” yielded a target mRNA knockdown of 81%. “RNA1{r(U)p.r(C)p.r(C)p.m(U)p.r(A)p.r(G)p.r(C)p.m(U)p.r(G)p.r(U)p.r(C)p.r(U)p.m(U)p.r(G)p.r(U)p.r(C)p.r(C)p.r(C)p.r(U)p.r(T)p.r(T)}|RNA2{r(A)p.r(G)p.r(G)p.r(G)p.r(A)p.m(C)p.r(A)p.r(A)p.r(G)p.r(A)p.m(C)p.r(A)p.r(G)p.r(C)p.m(U)p.r(A)p.r(G)p.r(G)p.r(A)p.r(T)p.r(T)}$$$RNA1{StrandType:ss}|RNA2{StrandType:as}$” showed a target mRNA knockdown of 68%. With “RNA1{m(C)p.r(C)p.m(G)p.r(C)p.m(C)p.r(C)p.m(G)p.r(G)p.m(C)p.r(G)p.m(G)p.r(C)p.m(G)p.r(C)p.m(C)p.r(U)p.m(U)p.r(U)p.m(A)p.r(T)p.r(T)}|RNA2{r(U)p.r(A)p.r(A)p.r(A)p.r(G)p.r(G)p.r(C)p.r(G)p.r(C)p.r(C)p.r(G)p.r(C)p.r(C)p.r(G)p.r(G)p.r(G)p.r(C)p.r(G)p.r(G)p.r(T)p.r(T)}$$$RNA1{StrandType:ss}|RNA2{StrandType:as}$” the target mRNA knockdown was 49%. For “RNA1{r(C)p.r(G)p.r(U)p.r(A)p.r(C)p.r(G)p.r(C)p.r(G)p.r(G)p.r(A)p.r(A)p.r(U)p.r(A)p.r(C)p.r(U)p.r(U)p.r(C)p.[s4r](G)p.[s4r](A)p.r(T)p.r(T)}|RNA2{[s4r](U)p.[s4r](C)p.r(G)p.r(A)p.r(A)p.r(G)p.r(U)p.r(A)p.r(U)p.r(U)p.r(C)p.r(C)p.r(G)p.r(C)p.r(G)p.r(U)p.r(A)p.r(C)p.r(G)p.r(T)p.r(T)}$$$RNA1{StrandType:ss}|RNA2{StrandType:as}$”, the target mRNA knockdown was 91.2%. “RNA1{r(G)p.m(U)p.r(A)p.r(U)p.r(C)p.r(C)p.r(G)p.r(A)p.r(A)p.m(G)p.m(A)p.r(C)p.r(G)p.r(A)p.r(A)p.r(G)p.r(C)p.m(U)p.r(A)p.r(T)p.r(T)}|RNA2{m(U)p.r(A)p.r(G)p.r(C)p.r(U)p.r(U)p.r(C)p.r(G)p.r(U)p.r(C)p.r(U)p.r(U)p.r(C)p.r(G)p.r(G)p.r(A)p.m(U)p.r(A)p.r(C)p.r(T)p.r(T)}$$$RNA1{StrandType:ss}|RNA2{StrandType:as}$” gave a target mRNA knockdown of 92%. “RNA1{[lna](A)p.r(A)p.r(A)p.r(C)p.r(A)p.r(U)p.r(G)p.r(C)p.r(A)p.r(G)p.r(A)p.r(A)p.r(A)p.r(A)p.r(U)p.r(G)p.r(C)p.r(U)p.r(G)p.[lna](T)p.[lna](T)}|RNA2{r(C)p.r(A)p.r(G)p.r(C)p.r(A)p.r(U)p.r(U)p.r(U)p.r(U)p.r(C)p.r(U)p.r(G)p.r(C)p.r(A)p.r(U)p.r(G)p.r(U)p.r(U)p.r(U)p.r(T)p.r(T)}$$$RNA1{StrandType:ss}|RNA2{StrandType:as}$” gave a target mRNA knockdown of 82%. “RNA1{r(C)p.r(U)p.r(C)p.r(C)p.r(U)p.r(U)p.r(C)p.r(A)p.r(U)p.r(U)p.r(C)p.r(C)p.r(A)p.r(G)p.r(C)p.r(C)p.m(U)p.r(A)p.r(U)p.r(T)p.r(T)}|RNA2{r(A)p.m(U)p.r(A)p.r(G)p.r(G)p.r(C)p.r(U)p.r(G)p.r(G)p.r(A)p.r(A)p.r(U)p.r(G)p.r(A)p.r(A)p.r(G)p.r(G)p.r(A)p.r(G)p.r(T)p.r(T)}$$$RNA1{StrandType:ss}|RNA2{StrandType:as}$” gave a target mRNA knockdown of 81%. For “RNA1{r(G)p.r(G)p.r(G)p.r(A)p.r(G)p.r(G)p.r(U)p.r(C)p.r(U)p.r(U)p.r(A)p.r(G)p.r(A)p.r(A)p.r(A)p.r(A)p.r(C)p.r(A)p.r(C)p.r(T)p.r(T)}|RNA2{r(G)p.r(U)p.r(G)p.r(U)p.r(U)p.r(U)p.r(U)p.r(C)p.m(U)p.r(A)p.r(A)p.r(G)p.r(A)p.r(C)p.r(C)p.r(U)p.r(C)p.r(C)p.r(C)p.r(T)p.r(T)}$$$RNA1{StrandType:ss}|RNA2{StrandType:as}$”, the target mRNA knockdown was 82%. Substance “RNA1{m(A)p.r(A)p.m(G)p.r(G)p.m(A)p.r(C)p.m(C)p.r(U)p.m(A)p.r(G)p.m(A)p.r(G)p.m(G)p.r(A)p.m(G)p.r(U)p.m(C)p.r(A)p.m(C)p.r(T)p.r(T)}|RNA2{m(G)p.r(U)p.m(G)p.r(A)p.r(C)p.r(U)p.r(C)p.r(C)p.r(U)p.r(C)p.r(U)p.r(A)p.m(G)p.m(G)p.r(U)p.r(C)p.r(C)p.r(U)p.r(U)p.r(T)p.r(T)}$$$RNA1{StrandType:ss}|RNA2{StrandType:as}$” has a target mRNA knockdown of 36%. For “RNA1{[fl2r](G)p.m(A)p.[fl2r](C)p.m(G)p.[fl2r](U)p.m(A)p.[fl2r](A)p.m(A)p.[fl2r](C)p.m(G)p.[fl2r](G)p.m(C)p.[fl2r](C)p.m(A)p.[fl2r](C)p.m(A)p.[fl2r](A)p.m(G)p.[fl2r](U)p.m(U)p.[fl2r](C)}|RNA2{r(A)p.r(C)p.r(U)p.r(U)p.r(G)p.r(U)p.r(G)p.r(G)p.r(C)p.r(C)p.r(G)p.r(U)p.r(U)p.r(U)p.r(A)p.r(C)p.r(G)p.r(U)p.r(C)p.r(G)p.r(C)}$$$RNA1{StrandType:ss}|RNA2{StrandType:as}$”, the target mRNA knockdown was 87.3%. Work on “RNA1{r(C)p.r(U)p.r(C)p.r(C)p.r(G)p.r(A)p.m(C)p.m(A)p.r(G)p.r(A)p.m(U)p.r(G)p.r(A)p.r(A)p.r(G)p.r(G)p.r(A)p.r(A)p.r(A)p.r(T)p.r(T)}|RNA2{r(U)p.r(U)p.r(U)p.r(C)p.r(C)p.r(U)p.r(U)p.m(C)p.r(A)p.r(U)p.r(C)p.m(U)p.m(G)p.r(U)p.r(C)p.r(G)p.r(G)p.r(A)p.r(G)p.r(T)p.r(T)}$$$RNA1{StrandType:ss}|RNA2{StrandType:as}$” yielded a target mRNA knockdown of 70%. Substance “RNA1{[s4r](C)p.[s4r](G)p.[s4r](U)p.[s4r](A)p.r(C)p.r(G)p.r(C)p.r(G)p.r(G)p.r(A)p.r(A)p.r(U)p.r(A)p.r(C)p.r(U)p.[s4r](U)p.[s4r](C)p.[s4r](G)p.[s4r](A)p.r(T)p.r(T)}|RNA2{[s4r](U)p.[s4r](C)p.[s4r](G)p.[s4r](A)p.r(A)p.r(G)p.r(U)p.r(A)p.r(U)p.r(U)p.r(C)p.r(C)p.r(G)p.r(C)p.r(G)p.[s4r](U)p.[s4r](A)p.[s4r](C)p.[s4r](G)p.r(T)p.r(T)}$$$RNA1{StrandType:ss}|RNA2{StrandType:as}$” has a target mRNA knockdown of 0%. For “RNA1{r(A)p.r(U)p.m(C)p.r(A)p.r(G)p.r(A)p.r(G)p.r(G)p.r(G)p.r(A)p.r(G)p.r(G)p.r(U)p.r(C)p.r(U)p.m(U)p.r(A)p.r(G)p.r(A)p.r(T)p.r(T)}|RNA2{r(U)p.r(C)p.m(U)p.r(A)p.r(A)p.r(G)p.r(A)p.r(C)p.r(C)p.r(U)p.r(C)p.r(C)p.r(C)p.r(U)p.r(C)p.m(U)p.r(G)p.r(A)p.r(U)p.r(T)p.r(T)}$$$RNA1{StrandType:ss}|RNA2{StrandType:as}$”, the target mRNA knockdown was 68%. With “RNA1{m(U)p.r(A)p.r(C)p.r(C)p.r(G)p.r(A)p.r(G)p.r(A)p.r(A)p.r(U)p.r(G)p.r(A)p.r(G)p.r(C)p.r(C)p.r(U)p.r(G)p.r(A)p.r(U)p.r(T)p.r(T)}|RNA2{r(A)p.r(U)p.r(C)p.r(A)p.r(G)p.r(G)p.r(C)p.r(U)p.r(C)p.r(A)p.r(U)p.r(U)p.r(C)p.r(U)p.r(C)p.r(G)p.r(G)p.m(U)p.r(A)p.r(T)p.r(T)}$$$RNA1{StrandType:ss}|RNA2{StrandType:as}$” the target mRNA knockdown was 55%.
